According to patent publication US8834910B2, “Sustained release dispenser comprising two or more sex pheromone substances” (Shin-Etsu Chemical Co., Ltd., priority 2003, dated 2014):

Experiment: Vapor pressure by the gas flow method (OECD guideline)
Type: physicochemical
Conditions: head: 20° C.; text: gas flow method at 25° C.
Description: Chemical structure, relation with a target insect and carbon number of each component are listed in the pest control of the pear and peach in Japan. The vapor pressure was measured by the gas flow method at 25° C. according to the “Addendum to the OECD chemical test guideline, issues 7 and 8” (Adopted on Jul. 27, 1995).
For `CCC(C)CCCCCCCCCOC(C)=O` (stereo not drawn) [10-methyldodecyl acetate], the “Vapor pressure (20° C.) (Pa)” value was 0.186 Pa. With `C=CCCCCCCCCCCOC(C)=O` [11-dodecenyl acetate] the “Vapor pressure (20° C.) (Pa)” value was 0.246 Pa. For `CCC/C=C\CCCCCCCO` [Z-8-dodecene-1-ol], the “Vapor pressure (20° C.) (Pa)” value was 0.980 Pa. With `CCC/C=C\CCCCCCCOC(C)=O` [Z-8-dodecenyl acetate] the “Vapor pressure (20° C.) (Pa)” value was 0.267 Pa. With `CC/C=C\CCCCCCCCOC(C)=O` [Z-9-dodecenyl acetate] the “Vapor pressure (20° C.) (Pa)” value was 0.267 Pa. For `CCCC/C=C\CCCCCCCCOC(C)=O` [Z-9-tetradecenyl acetate], the “Vapor pressure (20° C.) (Pa)” value was 0.100 Pa. For `CC/C=C\CCCCCCCCCCO` [Z-11-tetradecene-1-ol], the “Vapor pressure (20° C.) (Pa)” value was 0.070 Pa. In the case of `CC/C=C\CCCCCCCCCCOC(C)=O` [Z-11-tetradecenyl acetate], the “Vapor pressure (20° C.) (Pa)” value is reported as 0.100 Pa. With `CCCCCC/C=C\CCC(=O)CCCCCCCCC` [Z-13-icosen-10-one] the “Vapor pressure (20° C.) (Pa)” value was 0.005 Pa.
